Twelve compounds from PubChem BioAssay (NCI) can be followed below.

Each structure is given as a SMILES string.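 Results reflect a 48-hour exposure of cells in 96-well plates to compound at five concentrations. GI50: concentration for 50% inhibition of growth. TGI marks complete inhibition of growth.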 A value given as a limit tells only on which side of the number the result lay.

Some test systems named below: 786-0 renal; A549 NSCLC; HOP-62 NSCLC; IGROV1 ovarian; K-562 leukemia; OVCAR-3 ovarian; SN12C renal; UACC-257 melanoma; UO-31 renal; SF-539 CNS.
Holding throughout (assay): inhibition of tumour cell growth, NCI panel, 48 h

For `COc1ccc(C=C2C(=O)OC(C)(C)OC2=O)cc1OC`, the TGI with 786-0 renal, with A549 NSCLC, in the assay on HOP-62 NSCLC, in the assay on IGROV1 ovarian, with K-562 leukemia and with OVCAR-3 ovarian was above 100 µM throughout. In addition, the TGI in the assay on SN12C renal, with UACC-257 melanoma and in the assay with UO-31 renal was above 100 µM throughout.

With `Cc1cn(C2CC(F)C(CO)O2)c(=O)[nH]c1=O` (stereo not drawn), the GI50 with 786-0 renal, in the assay on A549 NSCLC, with HOP-62 NSCLC, in the assay with IGROV1 ovarian, in the assay with K-562 leukemia and with OVCAR-3 ovarian was above 100 µM each time. Besides, the GI50 with SN12C renal, in the assay on UACC-257 melanoma and in the assay on UO-31 renal was above 100 µM throughout. Moreover, the TGI with 786-0 renal, in the assay on A549 NSCLC, with HOP-62 NSCLC, with IGROV1 ovarian, in the assay with K-562 leukemia and with OVCAR-3 ovarian was above 100 µM throughout. The TGI with SN12C renal, in the assay with UACC-257 melanoma and in the assay with UO-31 renal was above 100 µM each time.

`CC(=O)O[C@H]1C(=O)[C@@]2(C)C(C(OC(=O)c3ccccc3)[C@]3(O)CC(OC(=O)[C@H](OC(=O)CCC(=O)O)C(NC(=O)c4ccccc4)c4ccccc4)C(C)=C1C3(C)C)C1(OC(C)=O)COC1C[C@@H]2OC(=O)CCC(=O)O` (stereo partly drawn): the TGI is above 100 µM in the assay on 786-0 renal; above 100 µM with A549 NSCLC; above 100 µM in the assay with IGROV1 ovarian; above 54.2 µM in the assay on OVCAR-3 ovarian; 2.72 µM in the assay with SF-539 CNS; above 100 µM in the assay with SN12C renal. The TGI with UACC-257 melanoma and in the assay on UO-31 renal was above 100 µM throughout. The GI50 with OVCAR-3 ovarian was 1.89 µM.

On to `[N-]=[N+]=NC(c1cn(C2CC(O)C(CO)O2)c(=O)[nH]c1=O)C(Br)I` (stereo not drawn), for which the TGI in the assay on 786-0 renal, in the assay on A549 NSCLC, in the assay on HOP-62 NSCLC, in the assay with IGROV1 ovarian, with K-562 leukemia and with OVCAR-3 ovarian was above 100 µM each time. Also, the TGI in the assay on SF-539 CNS, in the assay on SN12C renal and in the assay with UO-31 renal was above 100 µM in each case.

For `O=c1c2ccccc2c2ccccc2c(=O)n1-c1cc2c3ccccc3ccc2c2ccccc12`, the TGI in the assay on 786-0 renal, in the assay on A549 NSCLC, in the assay with HOP-62 NSCLC, in the assay with IGROV1 ovarian, in the assay on OVCAR-3 ovarian and in the assay on SF-539 CNS was above 100 µM throughout. Also, the TGI with SN12C renal, in the assay on UACC-257 melanoma and in the assay with UO-31 renal was above 100 µM in each case.

For the compound `O=C(O)CNc1c2ccccc2nc2ccccc12`, the TGI with 786-0 renal, with A549 NSCLC, in the assay on IGROV1 ovarian, with K-562 leukemia, in the assay on OVCAR-3 ovarian and in the assay with SF-539 CNS was above 100 µM throughout. Besides, the TGI in the assay on SN12C renal, with UACC-257 melanoma and in the assay with UO-31 renal was above 100 µM each time.

Regarding `CCCCCCCCCCC/C(=N/O)c1ccc(O)c2ncccc12`, the TGI with 786-0 renal was 30.2 µM; in the assay with A549 NSCLC, 35.8 µM; in the assay with HOP-62 NSCLC it was 17.5 µM; in the assay on SF-539 CNS it was 4.91 µM; in the assay on UACC-257 melanoma, 24.2 µM; in the assay on UO-31 renal, 11.4 µM.

As for `Cc1ccc(NC(=O)CC2C(=O)Nc3ccccc3S2=O)cc1C` (stereo not drawn), the TGI in the assay on 786-0 renal was 68.8 µM; with A549 NSCLC it was above 100 µM; with IGROV1 ovarian, above 100 µM; in the assay on K-562 leukemia, above 100 µM; in the assay on OVCAR-3 ovarian, above 100 µM; in the assay on SF-539 CNS it was 47.5 µM. For the same compound, the TGI in the assay on SN12C renal, in the assay with UACC-257 melanoma and in the assay on UO-31 renal was above 100 µM in each case.

`CCN(CC)c1ccc(/C=C\c2cc(C)c3cc(C)ccc3n2)cc1`: the GI50 in the assay on 786-0 renal is 3.98 µM; in the assay with A549 NSCLC it was 4.98 µM; in the assay with IGROV1 ovarian, 7.34 µM; with OVCAR-3 ovarian it was 3.24 µM; in the assay on SF-539 CNS it was 3.79 µM; with SN12C renal it was 11.7 µM. Moreover, the GI50 with UO-31 renal is 6.97 µM. Besides, the TGI was above 100 µM in the assay on 786-0 renal; above 100 µM in the assay on A549 NSCLC; above 100 µM with IGROV1 ovarian; 12.4 µM in the assay with OVCAR-3 ovarian; 46.8 µM in the assay with SF-539 CNS; above 100 µM in the assay on SN12C renal. Further, the TGI in the assay on UO-31 renal is above 100 µM.

With `CCCC1c2c(ccc3ccccc23)Oc2ccc3ccccc3c21`, the TGI in the assay with 786-0 renal, in the assay on A549 NSCLC, in the assay with HOP-62 NSCLC, in the assay with IGROV1 ovarian, with OVCAR-3 ovarian and in the assay with SF-539 CNS was above 100 µM each time. Moreover, the TGI in the assay on SN12C renal was above 100 µM; with UACC-257 melanoma, 70.8 µM; in the assay on UO-31 renal it was above 100 µM.

In the case of `OCCCCC#Cc1ccccc1C#Cc1ccccc1`, the GI50 was 8.6 µM in the assay with 786-0 renal; 21.3 µM with A549 NSCLC; 16.3 µM in the assay with HOP-62 NSCLC; 30.9 µM with IGROV1 ovarian; 22.1 µM in the assay with K-562 leukemia; 10.8 µM with SF-539 CNS. Further, the GI50 is 13.5 µM with SN12C renal, 19.4 µM in the assay with UACC-257 melanoma and 28.4 µM in the assay on UO-31 renal. Further, the TGI in the assay with 786-0 renal was 22.5 µM; in the assay on A549 NSCLC, 70.4 µM; with HOP-62 NSCLC it was 30.6 µM; in the assay with IGROV1 ovarian, above 100 µM; in the assay with K-562 leukemia, above 100 µM; in the assay with SF-539 CNS, 24.1 µM. The TGI in the assay on SN12C renal was 27.8 µM; in the assay on UACC-257 melanoma it was 43.8 µM; in the assay on UO-31 renal it was above 100 µM.

Turning to `CCCCCCCCCCCCCCCCCC(=O)OCC(CN(C)CCN(C)C)OC(=O)CCCCCCCCCCCCCCCCC` (stereo not drawn), the TGI in the assay on 786-0 renal, in the assay with A549 NSCLC, in the assay with HOP-62 NSCLC, in the assay with IGROV1 ovarian, with K-562 leukemia and with OVCAR-3 ovarian was above 100 µM each time. In addition, the TGI in the assay on SN12C renal, with UACC-257 melanoma and in the assay on UO-31 renal was above 100 µM throughout.
